The source of these data is patent US10806744B2, “Edible composition” (Conopco, Inc., priority 2015, dated 2020).

“And” between values parts separate entries of the source, which are not always exact repeats. Equal values may be shown once.

Test [1] has as its system glucose transport across differentiated Caco-2 cell monolayers. Put plainly: Glucose transport cell model: 5 mM D-glucose 15 minutes, then 25 mM for 45 minutes, cumulative glucose transport. Format: cell-based, human. Details: unit not given here. The following applies: duplicate. How it is done: Caco-2 cells were cultured and routinely passaged as described in Example 1.
After the last incubation, all of the retained PBS(+) from each step (i.e. at 15, 30, 45 and 60 minutes) was assayed for glucose levels as described in Example 1, and the total cumulative glucose transport calculated. The localised changes in luminal glucose concentrations described and illustrated in example 1 are mimicked in-vitro through an initial short incubation of differentiated Caco-2 cells with a low level of D-glucose (5 mM for 15 minutes) immediately followed by a sustained incubation with a high level of D-glucose (final concentration of 25 mM for 45 minutes).
In the above table, every test pairing of a homisoflavonoid (HIF) and a flavonoid monoglucoside (FM) has 5 values reported: • 1. No Compound (NC)+NC • 2.
Synergy is achieved when the inhibition caused by the combination of HIF and FM is greater than the sum of the inhibition due to HIF alone added to the inhibition due to FM alone.

For test [2], the target named is T1, SGLT1 (Homo sapiens, UniProt P13866).
T1 sequence (P13866 1-664): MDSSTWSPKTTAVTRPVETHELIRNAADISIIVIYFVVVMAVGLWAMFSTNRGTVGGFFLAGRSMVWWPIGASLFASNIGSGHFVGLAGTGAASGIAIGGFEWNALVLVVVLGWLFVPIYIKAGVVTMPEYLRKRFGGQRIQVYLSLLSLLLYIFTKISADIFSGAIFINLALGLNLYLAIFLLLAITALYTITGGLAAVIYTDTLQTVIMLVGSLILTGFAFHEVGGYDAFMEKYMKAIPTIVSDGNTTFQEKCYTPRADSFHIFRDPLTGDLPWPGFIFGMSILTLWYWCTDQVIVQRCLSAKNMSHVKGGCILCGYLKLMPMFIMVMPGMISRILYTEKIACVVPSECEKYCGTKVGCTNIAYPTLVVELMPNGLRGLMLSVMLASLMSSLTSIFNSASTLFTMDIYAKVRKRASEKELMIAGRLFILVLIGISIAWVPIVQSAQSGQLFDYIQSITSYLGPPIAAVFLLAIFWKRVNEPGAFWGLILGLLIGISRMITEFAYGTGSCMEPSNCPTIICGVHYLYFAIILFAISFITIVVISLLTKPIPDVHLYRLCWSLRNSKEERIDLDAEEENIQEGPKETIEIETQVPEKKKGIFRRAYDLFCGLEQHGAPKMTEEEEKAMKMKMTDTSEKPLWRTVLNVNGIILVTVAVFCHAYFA
Conditions: as disclosed in Table 1 of WO 2014/086632; cited from earlier work.

For a further test, the target named is T2, GLUT2 (Homo sapiens, UniProt P11168).
T2 sequence (P11168 1-524): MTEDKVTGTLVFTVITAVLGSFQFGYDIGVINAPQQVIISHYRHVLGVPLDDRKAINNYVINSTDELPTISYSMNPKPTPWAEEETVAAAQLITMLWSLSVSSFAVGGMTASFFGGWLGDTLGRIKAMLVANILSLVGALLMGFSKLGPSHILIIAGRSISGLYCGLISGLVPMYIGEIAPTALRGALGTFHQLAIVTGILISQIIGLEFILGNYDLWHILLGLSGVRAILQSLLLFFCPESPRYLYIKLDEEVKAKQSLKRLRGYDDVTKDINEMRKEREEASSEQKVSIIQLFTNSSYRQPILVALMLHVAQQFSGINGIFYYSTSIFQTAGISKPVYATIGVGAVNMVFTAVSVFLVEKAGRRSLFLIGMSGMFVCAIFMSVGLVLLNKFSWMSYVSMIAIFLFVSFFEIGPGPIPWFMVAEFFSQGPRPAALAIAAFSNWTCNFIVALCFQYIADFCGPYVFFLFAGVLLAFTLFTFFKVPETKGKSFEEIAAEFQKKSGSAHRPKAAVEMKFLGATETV
Put plainly: Glucose transport inhibitor cell screening assay, 25 mM D-glucose for 30 minutes. The following applies: for inhibition at 300 µM: Caco-2, read-out: % Glucose transport inhibiton 25 mM. In general terms: Passage across Caco-2 layers is used to estimate intestinal permeability.

The target in test [3] is T1, SGLT1. Put plainly: Glucose transport inhibitor cell screening assay, 5 mM D-glucose for 15 minutes.
Procedure: Human epithelial colorectal adenocarcinoma (Caco-2) cells were obtained from the American Type Culture Collection (ATCC) and cultured in Growth Medium consisting of Dulbecco's modified Eagle's medium (containing Glutamax-1, 4.5 g/L D-glucose and 25 mM 4-(2-hydroxyethyl)-1-piperazine ethanesulphonic acid (Hepes) (Invitrogen)), 10% foetal bovine serum (Sigma), 1% non-essential amino acids (Invitrogen) and 1 mM sodium pyruvate (Sigma)). The cells were routinely passaged at approximately 80% confluence using TrypLE™ Express Stable Trypsin-Like Enzyme (Invitrogen) to detach the cells, and seeded at approximately 114 cells per mm^2 in fresh tissue culture flasks. Only cells between the passage numbers 45 and 49 were used for experiments.
Corning® HTS Transwell® 96 well permeable insert supports (Sigma) were collagen coated with 40 μl of 50 μg/ml rat tail collagen type I (BD Biosciences) in 0.02 M acetic acid for one hour at room temperature under sterile conditions. The inserts were washed twice in phosphate buffered saline (PBS (Invitrogen)) and the Caco-2 cells seeded into the inserts at 1.0×10^6 cell/ml (75 μl per insert) in Growth Medium and 30 ml of Growth Medium added to the feeder plate below. The cells were left to attach to the collagen matrix and form monolayers over 48 hours at 37° C., 5% CO2. Both inserts and feeder plate were washed in PBS and the cells incubated with BD Entero-STIM™ Enterocyte Differentiation Medium containing MITO+™ Serum Extender solution (both BD Biosciences), 75 μl per insert and 30 ml in the feeder plate, for a further 48 hours at 37° C., 5% CO2.
Differentiated cell monolayers were washed gently in Dulbecco's Phosphate Buffered Saline containing CaCl2 and MgCl2 (PBS(+) (Invitrogen)) and the inserts transferred to a new Corning® HTS Transwell®-96 well receiver plate (Sigma). The cells were incubated with fresh PBS(+) (75 μl per insert and 225 μl per well) for 60 minutes at 37° C., 5% CO2. The PBS(+) was gently aspirated and replaced with 75 μl per insert of either 5 mM D-glucose (Sigma)±test compound or 25 mM D-glucose±test compound in triplicate and 225 μl per well of PBS(+) quickly added to each well. The 5 mM glucose wells and the 25 mM glucose wells were incubated at 37° C., 5% CO2 for 15 minutes and 30 minutes, respectively. […] The cell inserts were transferred to a new receiver plate, the supernatant gently aspirated from the cells and replaced with 100 μl of 100 μM of Lucifer Yellow (Sigma) solution to confirm the integrity of the monolayers. 225 μl of PBS(+) was added to each well and incubated at 37° C., 5% CO2 for 1 hour. The cell inserts were then discarded and the permeability of the membranes to Lucifer Yellow checked by measuring the fluorescence of the samples at 485 nm (excitation) and 530 nm (emission) on a Spectramax Gemini EM fluorescence microplate reader.
The amount of glucose transported across the cell monolayers was measured using a glucose assay based on Invitrogen's Amplex Red Glucose/Glucose oxidase Assay Kit. Briefly, 50 μl of each test sample was transferred to a black sided/clear bottom 96-well plate (Greiner Bio-One) to which 100 μl of reaction buffer (0.5 μl 10 mM Ampliflu Red, 1 μl 10 U/ml Horse Radish peroxidase, 1 μl 100 U/ml glucose oxidase and 97.5 μl PBS (all Sigma)) was added. After 10 minutes incubation at room temperature, the fluorescence of the samples was measured at 530 nm (excitation) and 590 nm (emission) on a Spectramax Gemini EM fluorescence microplate reader and the glucose concentration extrapolated from a standard curve.
At higher D-glucose concentrations, the SGLT1 transporter becomes saturated and consequently the majority of glucose transport across the monolayer is driven by the low affinity, high capacity GLUT2 transporter that is targeted to the apical membrane only following an initial SGLT1-dependent transport of glucose.
The next test relates to SGLT1 and GLUT2. Nature of the test: Assigned class of transporter inhibited, from Caco-2 screening at 5 mM and 25 mM D-glucose. Format: cell-based, human. Conditions: from % inhibition at 5 mM and 25 mM D-glucose; compound 300 μM.
[4] abbreviates: flavonoid monoglucoside 300 uM alone, added at 5 mM glucose step only (NC at 25 mM).
Where [5] appears, read: flavonoid monoglucoside 300 uM alone, added at 25 mM glucose step only (NC at 5 mM).

For `O=c1cc(-c2ccc(O)cc2)oc2c([C@@H]3O[C@H](CO)[C@@H](O)[C@H](O)[C@H]3O)c(O)cc(O)c12` [Apigenin-8-C-glucoside], the “Cumulative (AVE) glucose transport” value in test [1] (setting [4]) came out at 291.89; in test [1] (setting [5]), 287.58. Besides, the SGLT1 inhibitory activity entry on SGLT1 [2] is given as “SGLT1 inhibitors”. On to `OC[C@H]1O[C@@H](Oc2cc3c(O)cc(O)cc3[o+]c2-c2cc(O)c(O)c(O)c2)[C@H](O)[C@@H](O)[C@@H]1O.[Cl-]` [Delphinidin-3-O-glucoside chloride, delphinidin-3-O-glucoside chloride], for which the “Cumulative (AVE) glucose transport” value in test [1] (setting [4]) is 220.62; in test [1] (setting [5]), 227.60. Besides, the “% Glucose transport inhibiton 25 mM” value at GLUT2 (compound 300 μM in DMSO, 25 mM D-glucose, 30 minutes, Caco-2 monolayer, triplicate) turned out to be 12.82 ± 1.19%. Moreover, at SGLT1 [3] (Caco-2 cell assay), the “identified as inhibitors of SGLT1” value is “inhibitors of SGLT1”. Moreover, the “% Glucose transport inhibiton 5 mM” value at SGLT1 [3] (compound 300 μM in DMSO, 5 mM D-glucose, 15 minutes, Caco-2 monolayer, triplicate) is reported as 41.00 ± 3.60%. Also, the “Class (assigned class of transporter inhibited)” value with SGLT1 and GLUT2 is “SGLT1”. For the compound `Cc1c(O)cc2c(c1O)C(=O)C(Cc1ccc(O)cc1)CO2` (centres unmarked) [EA1, 5,7-dihydroxy-3-(4′-hydroxybenzyl)-6-methylchroman-4-one], the “Cumulative (AVE) glucose transport” value is 339.2 in test [1] (homoisoflavonoid 2.5 uM alone, added at 25 mM glucose step (NC at 5 mM)); 284.6 in test [1] (homoisoflavonoid 5 uM alone, added at 25 mM glucose step (NC at 5 mM)); 301.50 and 232.03 in test [1] (homoisoflavonoid 10 uM alone, added at 25 mM glucose step (NC at 5 mM)). Moreover, the inhibition at 300 µM was 66.6 ± 5.21% on GLUT2 and 90.7 ± 1.4% on SGLT1 [3] (Caco-2, read-out: % Glucose transport inhibiton 5 mM). Also, the “identified as inhibitors of GLUT2” value on GLUT2 (Caco-2 cell assay) is reported as “inhibitors of GLUT2”. The “Class (assigned class of transporter inhibited)” value in the test on SGLT1 and GLUT2 was “GLUT2 (GLUT2 inhibitors having ≥20% inhibition at both 5 mM and 25 mM D-glucose levels)”. In the case of `O=c1c(O[C@@H]2O[C@H](CO)[C@@H](O)[C@H](O)[C@H]2O)c(-c2ccc(O)cc2)oc2cc(O)cc(O)c12` [Kaempferol-3-glucoside], the “Cumulative (AVE) glucose transport” value amounted to 297.72 in test [1] (flavonoid monoglucoside 150 uM alone, added at 5 mM glucose step only (NC at 25 mM)) and 290.49 in test [1] (flavonoid monoglucoside 150 uM alone, added at 25 mM glucose step only (NC at 5 mM)). Further, on SGLT1 [2], the SGLT1 inhibitory activity entry is listed as “SGLT1 inhibitors”. Take `O=c1cc(-c2ccc(O)c(O)c2)oc2cc(O[C@@H]3O[C@H](CO)[C@@H](O)[C@H](O)[C@H]3O)cc(O)c12` [Luteolin-7-glucoside]: the “Cumulative (AVE) glucose transport” value in test [1] (flavonoid monoglucoside 300 uM alone, added at 5 mM glucose step only (NC at 25 mM), listed as L7G) was 220.63 and 301.4; in test [1] (flavonoid monoglucoside 300 uM alone, added at 25 mM glucose step only (NC at 5 mM), listed as L7G), 256.73 and 281.9. In addition, on SGLT1 [2], the SGLT1 inhibitory activity result is “SGLT1 inhibitors”. As to `O=C1CC(c2ccc(O)cc2)Oc2cc(O[C@@H]3O[C@H](CO)[C@@H](O)[C@H](O)[C@H]3O)cc(O)c21` (some centres unmarked) [Naringenin-7-O-glucoside], the “Cumulative (AVE) glucose transport” value is given as 215.32 in test [1] (setting [4]) and 236.65 in test [1] (setting [5]). Further, the SGLT1 inhibitory activity result at SGLT1 [2] is reported as “SGLT1 inhibitors”. As to `O=C(CCc1ccc(O)cc1)c1c(O)cc(O)cc1O[C@@H]1O[C@H](CO)[C@@H](O)[C@H](O)[C@H]1O` [Phloridzin, reference compound], the inhibition at 300 µM on GLUT2 amounted to 14.3 ± 0.84%. On to `O=c1cc(-c2ccc(O)cc2)oc2cc(OC3O[C@H](CO)[C@@H](O)[C@H](O)[C@H]3O)cc(O)c12` (some centres unmarked) [apigenin-7-glucoside], for which, on SGLT1 [2], the SGLT1 inhibitory activity entry was “SGLT1 inhibitors”. On to `OC[C@H]1O[C@@H](Oc2ccc(O)cc2)[C@H](O)[C@@H](O)[C@@H]1O` [arbutin], for which the SGLT1 inhibitory activity result on SGLT1 [2] was “lack of SGLT1 inhibitory activity”. Regarding `OC[C@H]1O[C@@H](Oc2cc3c(O)cc(O)cc3[o+]c2-c2ccc(O)c(O)c2)[C@H](O)[C@@H](O)[C@@H]1O` [cyanidin-3-glucoside], the SGLT1 inhibitory activity entry on SGLT1 [2] is reported as “SGLT1 inhibitors”. On to `C[C@@H]1O[C@@H](OC[C@H]2O[C@@H](Oc3cc4c(O)cc(O)cc4[o+]c3-c3ccc(O)c(O)c3)[C@H](O)[C@@H](O)[C@@H]2O)[C@H](O)[C@H](O)[C@H]1O` [cyanidin-3-rutinoside], for which the SGLT1 inhibitory activity result on SGLT1 [2] is “absence of SGLT1 inhibitory activity”. For `O=c1c(-c2ccc(O)cc2)coc2cc(O[C@@H]3O[C@H](CO)[C@@H](O)[C@H](O)[C@H]3O)ccc12` [daidzein-7-glucoside], the SGLT1 inhibitory activity entry on SGLT1 [2] is “SGLT1 inhibitors”.

Turning to `O=c1c(-c2ccc(O)cc2)coc2c([C@@H]3O[C@H](CO)[C@@H](O)[C@H](O)[C@H]3O)c(O)ccc12` [daidzein-8-C-glucoside], the SGLT1 inhibitory activity entry at SGLT1 [2] is on record as “SGLT1 inhibitors”.

With `OC[C@H]1O[C@@H](Oc2cc3c(O)cc(O)cc3[o+]c2-c2cc(O)c(O)c(O)c2)[C@H](O)[C@@H](O)[C@@H]1O` [delphinidin-3-glucoside], the SGLT1 inhibitory activity result on SGLT1 [2] was “SGLT1 inhibitors”. Regarding `O=C1CC(c2ccc(O)c(O)c2)Oc2cc(O[C@@H]3O[C@H](CO)[C@@H](O)[C@H](O)[C@H]3O)cc(O)c21` (some centres unmarked) [eriodictiol-7-glucoside], on SGLT1 [2], the SGLT1 inhibitory activity entry is recorded as “SGLT1 inhibitors”.

Regarding `O=c1c(O)c(-c2ccc(O)cc2)oc2cc(O[C@@H]3O[C@H](CO)[C@@H](O)[C@H](O)[C@H]3O)cc(O)c12` [kaempferol-7-glucoside], the SGLT1 inhibitory activity entry on SGLT1 [2] was “SGLT1 inhibitors”. For the compound `COc1cc(-c2[o+]c3cc(O)cc(O)c3cc2O[C@@H]2O[C@H](CO)[C@H](O)[C@H](O)[C@H]2O)cc(OC)c1O` [malvidin-3-O-galactoside], the SGLT1 inhibitory activity result at SGLT1 [2] is “absence of SGLT1 inhibitory activity”.

For the compound `COc1cc(-c2[o+]c3cc(O)cc(O)c3cc2O[C@@H]2O[C@H](CO)[C@@H](O)[C@H](O)[C@H]2O)cc(OC)c1O` [malvidin-3-O-glucoside], the SGLT1 inhibitory activity entry on SGLT1 [2] is “SGLT1 inhibitors”.

In the case of `OC[C@H]1O[C@@H](Oc2cc3c(O)cc(O)cc3[o+]c2-c2ccc(O)cc2)[C@H](O)[C@@H](O)[C@@H]1O` [pelargonidin-3-glucoside], on SGLT1 [2], the SGLT1 inhibitory activity entry is listed as “SGLT1 inhibitors”. As to `O=c1c(O[C@@H]2O[C@H](CO)[C@@H](O)[C@H](O)[C@H]2O)c(-c2ccc(O[C@@H]3O[C@H](CO)[C@@H](O)[C@H](O)[C@H]3O)c(O)c2)oc2cc(O)cc(O)c12` [quercetin-3,4′-diglucoside], the SGLT1 inhibitory activity entry at SGLT1 [2] is reported as “destroys this inhibitory action”. In the case of `O=c1c(O[C@@H]2O[C@H](CO)[C@@H](O)[C@H](O)[C@H]2O)c(-c2ccc(O)c(O)c2)oc2cc(O)cc(O)c12` [quercetin-3-glucoside], the SGLT1 inhibitory activity entry at SGLT1 [2] is reported as “SGLT1 inhibitors”.

As for `O=c1c(O)c(-c2ccc(O[C@@H]3O[C@H](CO)[C@@H](O)[C@H](O)[C@H]3O)c(O)c2)oc2cc(O)cc(O)c12` [quercetin-4-glucoside], the SGLT1 inhibitory activity entry at SGLT1 [2] is “SGLT1 inhibitors”.
